In patent US9624228B2, “Inhibitors of ERK and methods of use” (KURA ONCOLOGY, INC., priority 2013, dated 2017):

What follows are compounds tested against ERK2 enzyme (Homo sapiens (Human), UniProt P28482) (assay: Inhibition assay of ERK (Z'-LYTE kinase assay, Ser/Thr 3 peptide substrate)). Details: In vitro, ERK2 enzyme 0.47 ng/μL, 100 μM ATP.
Assay type: biochemical

Sequence of ERK2 enzyme (P28482 whole entry): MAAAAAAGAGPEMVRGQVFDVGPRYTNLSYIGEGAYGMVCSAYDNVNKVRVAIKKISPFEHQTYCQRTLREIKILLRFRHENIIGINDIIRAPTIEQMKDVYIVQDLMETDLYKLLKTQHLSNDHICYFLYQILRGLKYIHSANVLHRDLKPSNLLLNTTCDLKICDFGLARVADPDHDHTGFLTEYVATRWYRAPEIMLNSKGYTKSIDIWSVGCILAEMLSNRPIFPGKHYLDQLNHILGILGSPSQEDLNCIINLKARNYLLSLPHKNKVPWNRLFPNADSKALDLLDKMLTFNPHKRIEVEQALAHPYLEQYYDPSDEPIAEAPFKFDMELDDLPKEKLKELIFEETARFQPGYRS

Compound	IC50 [nM]
Cn1nccc1-c1n[nH]c2cc3c(cc12)CN([C@@H]1CCN(CC(F)(F)F)C1)C(=O)N3 [Compound 265]	50 to 250
Cc1cc(-c2n[nH]c3cc4c(cc23)CN([C@@H]2CCN(C(C)C(F)(F)F)C2)C(=O)N4)ccn1 (some centres unmarked) [Compound 267]	< 50
Cc1cc(-c2n[nH]c3cc4c(cc23)CN([C@@H]2CCN(C(C)C)C2)C(=O)N4)ccn1 [Compound 268]	50 to 250
COc1cc(-c2n[nH]c3cc4c(cc23)CN([C@@H]2CCCN(Cc3ccc(F)cc3F)C2)C(=O)N4)ccn1 [Compound 271]	< 50
COc1ccc(-c2n[nH]c3cc4c(cc23)CN([C@@H]2CCCN(Cc3ccccc3)C2)C(=O)N4)cn1 [Compound 272]	< 50
COc1ccc(-c2n[nH]c3cc4c(cc23)CN([C@@H]2CCCN(Cc3ccc(F)cc3F)C2)C(=O)N4)cn1 [Compound 273]	< 50
Cc1ccc(-c2n[nH]c3cc4c(cc23)CN([C@@H]2CCN(CC(F)(F)F)C2)C(=O)N4)cn1 [Compound 274]	< 50
COc1ncc(-c2n[nH]c3cc4c(cc23)CN([C@@H]2CCN(CC(F)(F)F)C2)C(=O)N4)cn1 [Compound 276]	< 50
COc1ccc(-c2n[nH]c3cc4c(cc23)CN([C@@H]2CCN(CC(F)(F)F)C2)C(=O)N4)cn1 [Compound 277]	< 50
COc1ncc(-c2n[nH]c3cc4c(cc23)CN([C@@H]2CCCN(Cc3ccc(F)cc3F)C2)C(=O)N4)cn1 [Compound 280]	< 50
Cn1cc(-c2n[nH]c3cc4c(cc23)CN([C@@H]2CCCN(Cc3ccc(F)cc3F)C2)C(=O)N4)cn1 [Compound 281]	< 50
Cc1ncc(-c2n[nH]c3cc4c(cc23)CN([C@@H]2CCN(CC(F)(F)F)C2)C(=O)N4)cn1 [Compound 282]	< 50
Cc1cc(-c2n[nH]c3cc4c(cc23)CN(CCC2CC2)C(=O)N4)ccn1 [Compound 283]	50 to 250
Cc1ccc(-c2n[nH]c3cc4c(cc23)CN([C@@H]2CCCN(Cc3ccc(F)cc3F)C2)C(=O)N4)cn1 [Compound 284]	< 50
Cc1cc(-c2n[nH]c3cc4c(cc23)CN(C(C)c2nc(C)c(C)s2)C(=O)N4)ccn1 (centres unmarked) [Compound 286]	< 50
Cc1cc(-c2n[nH]c3cc4c(cc23)CN([C@@H]2CCCN(Cc3ccc(F)s3)C2)C(=O)N4)ccn1 [Compound 290]	< 50
Cc1cc(-c2n[nH]c3cc4c(cc23)CN([C@@H]2CCCN(Cc3sccc3F)C2)C(=O)N4)ccn1 [Compound 291]	< 50
Cc1ncc(-c2n[nH]c3cc4c(cc23)CN([C@@H]2CCCN(Cc3ccc(F)cc3F)C2)C(=O)N4)cn1 [Compound 293]	< 50

Compound	IC50 [nM]
Cc1cc(-c2n[nH]c3cc4c(cc23)CN(C(C)C2CCCC2)C(=O)N4)ccn1 (centres unmarked) [Compound 294]	< 50
COc1ncc(-c2n[nH]c3cc4c(cc23)CN([C@@H]2CCCN(Cc3cccs3)C2)C(=O)N4)cn1 [Compound 295]	< 50
Cn1cc(-c2n[nH]c3cc4c(cc23)CN([C@@H]2CCCN(Cc3cccs3)C2)C(=O)N4)cn1 [Compound 298]	< 50
Cc1cc(-c2n[nH]c3cc4c(cc23)CN([C@H]2CCN(CC(F)(F)F)C2)C(=O)N4)ccn1 [Compound 299]	< 50
Cc1cc(-c2n[nH]c3cc4c(cc23)CN([C@H]2CN(CC(F)(F)F)C[C@@H]2c2ccccc2)C(=O)N4)ccn1 [Compound 303]	250 to 1000
Cc1cc(-c2n[nH]c3cc4c(cc23)CN([C@@H]2CN(CC(F)(F)F)C[C@H]2c2ccccc2)C(=O)N4)ccn1 [Compound 304]	< 50
Cc1cc(-c2n[nH]c3cc4c(cc23)CN([C@H]2CCCN(CC(F)(F)F)C2)C(=O)N4)ccn1 [Compound 309]	50 to 250
Cc1cc(-c2n[nH]c3cc4c(cc23)CN([C@H]2CCN(CC(F)(F)F)C2)C(=O)N4)cc(C)n1 [Compound 310]	< 50
Cc1cc(-c2n[nH]c3cc4c(cc23)CN([C@@H]2CCC[C@@H](NCc3ccccc3)C2)C(=O)N4)ccn1 [Compound 313]	< 50
Cc1cc(-c2n[nH]c3cc4c(cc23)CN([C@@H]2CN(CC(F)(F)F)C[C@H]2C(C)(C)C)C(=O)N4)ccn1 [Compound 329]	250 to 1000
Cc1cc(-c2n[nH]c3cc4c(cc23)CN([C@@H]2CN(CC(F)(F)F)C[C@H]2C(F)(F)F)C(=O)N4)ccn1 [Compound 331]	< 50
Cc1cc(-c2n[nH]c3cc4c(cc23)CN([C@@H]2CN(CC(F)(F)F)C[C@H]2c2ccccc2)C(=O)N4)cc(C)n1 [Compound 339]	< 50
O=C1Nc2cc3[nH]nc(-c4ccnnc4)c3cc2CN1[C@@H]1CN(CC(F)(F)F)C[C@H]1c1ccccc1 [Compound 340]	< 50
O=C1Nc2cc3[nH]nc(-c4cccnc4)c3cc2CN1[C@@H]1CN(CC(F)(F)F)C[C@H]1c1ccccc1 [Compound 341]	< 50
O=C1Nc2cc3[nH]nc(-c4ccncc4)c3cc2CN1[C@@H]1CN(CC(F)(F)F)C[C@H]1c1ccccc1 [Compound 342]	< 50
Cn1cc(-c2n[nH]c3cc4c(cc23)CN([C@@H]2CN(CC(F)(F)F)C[C@H]2c2ccccc2)C(=O)N4)ccc1=O [Compound 346]	< 50
COc1ncc(-c2n[nH]c3cc4c(cc23)CN([C@@H]2CN(CC(F)(F)F)C[C@H]2c2ccccc2)C(=O)N4)cn1 [Compound 348]	< 50
Cc1ncc(-c2n[nH]c3cc4c(cc23)CN([C@@H]2CN(CC(F)(F)F)C[C@H]2c2ccccc2)C(=O)N4)cn1 [Compound 349]	< 50

Results, then the compound that gave them:

IC50 [nM]	Compound
< 50	Cc1cc(-c2n[nH]c3cc4c(cc23)CN(C(C)C2CCOCC2)C(=O)N4)ccn1 (centres unmarked) [Compound 262]
250 to 1000	Cc1cc(-c2n[nH]c3cc4c(cc23)CN([C@@H]2CN(Cc3ccccc3)CC(F)(F)C2)C(=O)N4)ccn1 [Compound 263]
< 50	Cc1cc(-c2n[nH]c3cc4c(cc23)CN([C@H]2CN(Cc3ccccc3)CC(F)(F)C2)C(=O)N4)ccn1 [Compound 264]
< 50	Cc1cc(-c2n[nH]c3cc4[nH]c(=O)c(CC5CCCCC5)cc4cc23)ccn1 [Compound 266]
< 50	C=C(c1ccccc1)c1cc2cc3c(-c4ccnc(C)c4)n[nH]c3cc2[nH]c1=O [Compound 269]
< 50	COc1cc(-c2n[nH]c3cc4c(cc23)CN([C@@H]2CCCN(Cc3ccccc3)C2)C(=O)N4)ccn1 [Compound 270]
< 50	Cc1ccc(-c2n[nH]c3cc4c(cc23)CN([C@@H]2CCCN(Cc3ccccc3)C2)C(=O)N4)cn1 [Compound 275]
< 50	Cn1cc(-c2n[nH]c3cc4c(cc23)CN([C@@H]2CCCN(Cc3ccccc3)C2)C(=O)N4)cn1 [Compound 285]
50 to 250	Cc1cc(-c2n[nH]c3cc4[nH]c(=O)c([C@@H](C)c5ccc(F)cc5)cc4cc23)ccn1 [Compound 287]
< 50	Cc1cc(-c2n[nH]c3cc4[nH]c(=O)c(C5CCCC5)cc4cc23)ccn1 [Compound 289]
< 50	Cc1ncc(-c2n[nH]c3cc4c(cc23)CN([C@@H]2CCCN(Cc3ccccc3)C2)C(=O)N4)cn1 [Compound 292]
50 to 250	Cc1cc(-c2n[nH]c3cc4c(cc23)CN([C@H]2CN(C(C)C)C[C@@H]2c2ccccc2)C(=O)N4)ccn1 [Compound 296]
< 50	Cc1cc(-c2n[nH]c3cc4c(cc23)CN([C@H]2CCN(Cc3ccccc3)C2)C(=O)N4)ccn1 [Compound 301]
50 to 250	Cc1cc(-c2n[nH]c3cc4c(cc23)CN([C@H]2CN(C)C[C@@H]2c2ccccc2)C(=O)N4)cc(C)n1 [Compound 307]
< 50	Cc1cc(-c2n[nH]c3cc4c(cc23)CN([C@@H]2CN(C)C[C@H]2c2ccccc2)C(=O)N4)cc(C)n1 [Compound 308]
50 to 250	Cc1cc(-c2n[nH]c3cc4[nH]c(=O)c(C(C)c5ccc(F)cc5F)cc4cc23)ccn1 (centres unmarked) [Compound 312]
< 50	CC(c1ccccc1)c1cc2cc3c(-c4ccnc(N5CCN(C)CC5)c4)n[nH]c3cc2[nH]c1=O (centres unmarked) [Compound 318]
50 to 250	COc1ncc(-c2n[nH]c3cc4c(cc23)CN(C2CN(Cc3ccccc3)CC(F)(F)C2)C(=O)N4)cn1 (centres unmarked) [Compound 320]

IC50 [nM]	Compound
< 50	CC(c1ccccc1)c1cc2cc3c(-c4ccnnc4)n[nH]c3cc2[nH]c1=O (centres unmarked) [Compound 323]
50 to 250	CC(c1ccccc1)c1cc2cc3c(-c4ccc(N5CCOCC5)nc4)n[nH]c3cc2[nH]c1=O (centres unmarked) [Compound 324]
< 50	CC(c1ccccc1)c1cc2cc3c(-c4ccnc(N5CCOCC5)c4)n[nH]c3cc2[nH]c1=O (centres unmarked) [Compound 325]
< 50	CC(c1ccccc1)c1cc2cc3c(-c4ccncc4)n[nH]c3cc2[nH]c1=O (centres unmarked) [Compound 326]
< 50	Cc1cc(-c2n[nH]c3cc4[nH]c(=O)c(C(CO)c5ccccc5)cc4cc23)ccn1 (centres unmarked) [Compound 328]
< 50	CC(c1ccccc1)c1cc2cc3c(-c4cccnc4)n[nH]c3cc2[nH]c1=O (centres unmarked) [Compound 330]
< 50	Cc1cc(-c2n[nH]c3cc4[nH]c(=O)c(C5CCCN(Cc6ccccc6)C5)cc4cc23)ccn1 (centres unmarked) [Compound 332]
< 50	CC(c1ccccc1)c1cc2cc3c(-c4cnn(C)c4)n[nH]c3cc2[nH]c1=O (centres unmarked) [Compound 333]
< 50	CC(c1ccccc1)c1cc2cc3c(-c4cnc(N)nc4)n[nH]c3cc2[nH]c1=O (centres unmarked) [Compound 334]
< 50	Cc1ncccc1-c1n[nH]c2cc3[nH]c(=O)c(C(C)c4ccccc4)cc3cc12 (centres unmarked) [Compound 335]
< 50	Cc1cc(-c2n[nH]c3cc4[nH]c(=O)c(C5CCCN(Cc6cc(F)ccc6F)C5)cc4cc23)ccn1 (centres unmarked) [Compound 336]
< 50	CC(c1ccccc1)c1cc2cc3c(NC4CCOCC4)n[nH]c3cc2[nH]c1=O (centres unmarked) [Compound 338]
50 to 250	Cc1cnccc1-c1n[nH]c2cc3[nH]c(=O)c(C(C)c4ccccc4)cc3cc12 (centres unmarked) [Compound 343]
< 50	CC(c1ccccc1)c1cc2cc3c(-c4ccnc(N)c4)n[nH]c3cc2[nH]c1=O (centres unmarked) [Compound 344]
< 50	CC(c1ccccc1)c1cc2cc3c(N4CCOCC4)n[nH]c3cc2[nH]c1=O (centres unmarked) [Compound 345]
< 50	CC(c1ccccc1)c1cc2cc3c(-c4ccc(=O)n(C)c4)n[nH]c3cc2[nH]c1=O (centres unmarked) [Compound 347]
250 to 1000	Cn1nccc1-c1n[nH]c2cc3c(cc12)CN([C@@H]1CN(CC(F)(F)F)C[C@H]1c1ccccc1)C(=O)N3 [Compound 350]
